# According to patent US20250034216A1, “STEREOSELECTIVE COVALENT LIGANDS FOR ONCOGENIC AND IMMUNOLOGICAL PROTEINS” (The Scripps Research Institute, priority 2021, published 2025):
# Legend:
# Experiment in all cases: IA-DTB cysteine engagement
# Format in all cases: binding
# [1] = biological target: T1, ABHD16A_C205 (Homo sapiens, UniProt O95870); settings: 22Rv1 cells, relative to DMSO; for % engagement ABHD16A_205: 5 μM probe, 1 h (FIG. 5B); for % engagement ABHD16A_C205: 20 μM probe, 1 h
# T1 construct: endogenous in cells; host or cells: 22Rv1
# T1 sequence (O95870 1-558): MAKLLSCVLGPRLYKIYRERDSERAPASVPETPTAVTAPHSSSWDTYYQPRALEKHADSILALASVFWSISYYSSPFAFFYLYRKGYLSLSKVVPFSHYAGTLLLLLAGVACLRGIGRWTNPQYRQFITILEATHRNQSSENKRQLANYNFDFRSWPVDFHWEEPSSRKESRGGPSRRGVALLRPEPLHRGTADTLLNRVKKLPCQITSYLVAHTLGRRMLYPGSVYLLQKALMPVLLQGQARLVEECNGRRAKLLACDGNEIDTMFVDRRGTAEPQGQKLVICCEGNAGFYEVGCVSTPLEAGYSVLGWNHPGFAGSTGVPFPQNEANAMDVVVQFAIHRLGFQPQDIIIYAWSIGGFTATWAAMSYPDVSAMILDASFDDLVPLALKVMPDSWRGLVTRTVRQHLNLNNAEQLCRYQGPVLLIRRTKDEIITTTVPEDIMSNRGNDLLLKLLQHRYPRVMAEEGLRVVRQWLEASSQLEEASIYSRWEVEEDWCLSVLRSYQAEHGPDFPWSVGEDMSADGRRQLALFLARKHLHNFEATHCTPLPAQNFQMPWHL
# How it was run: (§1)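 Probe-exposed cells were lysed, IA-DTB-labeled, trypsinized and streptavidin-enriched. Multiplexed TMT quantitation gave engagement ratios versus DMSO, with non-tryptic peptides excluded and intensities normalized to median summed signal.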
# [2] = biological target: T2, CNOT4_C175 (Homo sapiens, UniProt O95628); settings: 22Rv1 cells, 20 μM probe, 1 h, relative to DMSO
# T2 construct: endogenous in cells; host or cells: 22Rv1
# T2 sequence (O95628 1-575): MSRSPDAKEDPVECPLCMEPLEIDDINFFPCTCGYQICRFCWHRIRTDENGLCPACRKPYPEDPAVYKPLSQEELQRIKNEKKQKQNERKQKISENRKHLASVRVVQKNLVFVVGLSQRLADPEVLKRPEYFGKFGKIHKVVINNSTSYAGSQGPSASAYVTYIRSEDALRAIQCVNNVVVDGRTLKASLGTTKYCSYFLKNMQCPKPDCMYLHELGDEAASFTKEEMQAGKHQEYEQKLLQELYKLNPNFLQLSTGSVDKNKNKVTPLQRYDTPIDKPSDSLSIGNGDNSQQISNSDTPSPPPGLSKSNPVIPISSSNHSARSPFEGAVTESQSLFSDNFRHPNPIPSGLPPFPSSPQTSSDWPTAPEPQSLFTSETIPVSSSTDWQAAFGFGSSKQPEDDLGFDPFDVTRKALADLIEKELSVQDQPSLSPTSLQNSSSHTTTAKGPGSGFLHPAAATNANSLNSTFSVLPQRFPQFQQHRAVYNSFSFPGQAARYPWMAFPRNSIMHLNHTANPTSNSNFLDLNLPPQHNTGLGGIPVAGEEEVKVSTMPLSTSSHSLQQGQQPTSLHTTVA
# How it was run: as §1
# [3] = biological target: T3, DCAF1_C1113 (Homo sapiens, UniProt Q9Y4B6); settings: 22Rv1 cells, 20 μM probe, 1 h, relative to DMSO
# T3 construct: endogenous in cells; host or cells: 22Rv1
# How it was run: as §1
# [4] = biological target: T4, DHX9_C608 (Homo sapiens, UniProt Q08211); settings: 22Rv1 cells, 20 μM probe, 1 h, relative to DMSO
# T4 construct: endogenous in cells; host or cells: 22Rv1
# How it was run: as §1
# [5] = biological target: T5, ITPR2_C579 (Homo sapiens, UniProt Q14571); settings: 22Rv1 cells, 20 μM probe, 1 h, relative to DMSO
# T5 construct: endogenous in cells; host or cells: 22Rv1
# How it was run: as §1
# [6] = biological target: T6, NUP205_C224 (Homo sapiens, UniProt Q92621); settings: 22Rv1 cells, 20 μM probe, 1 h, relative to DMSO
# T6 construct: endogenous in cells; host or cells: 22Rv1
# How it was run: as §1
# T6 sequence (Q92621 whole entry): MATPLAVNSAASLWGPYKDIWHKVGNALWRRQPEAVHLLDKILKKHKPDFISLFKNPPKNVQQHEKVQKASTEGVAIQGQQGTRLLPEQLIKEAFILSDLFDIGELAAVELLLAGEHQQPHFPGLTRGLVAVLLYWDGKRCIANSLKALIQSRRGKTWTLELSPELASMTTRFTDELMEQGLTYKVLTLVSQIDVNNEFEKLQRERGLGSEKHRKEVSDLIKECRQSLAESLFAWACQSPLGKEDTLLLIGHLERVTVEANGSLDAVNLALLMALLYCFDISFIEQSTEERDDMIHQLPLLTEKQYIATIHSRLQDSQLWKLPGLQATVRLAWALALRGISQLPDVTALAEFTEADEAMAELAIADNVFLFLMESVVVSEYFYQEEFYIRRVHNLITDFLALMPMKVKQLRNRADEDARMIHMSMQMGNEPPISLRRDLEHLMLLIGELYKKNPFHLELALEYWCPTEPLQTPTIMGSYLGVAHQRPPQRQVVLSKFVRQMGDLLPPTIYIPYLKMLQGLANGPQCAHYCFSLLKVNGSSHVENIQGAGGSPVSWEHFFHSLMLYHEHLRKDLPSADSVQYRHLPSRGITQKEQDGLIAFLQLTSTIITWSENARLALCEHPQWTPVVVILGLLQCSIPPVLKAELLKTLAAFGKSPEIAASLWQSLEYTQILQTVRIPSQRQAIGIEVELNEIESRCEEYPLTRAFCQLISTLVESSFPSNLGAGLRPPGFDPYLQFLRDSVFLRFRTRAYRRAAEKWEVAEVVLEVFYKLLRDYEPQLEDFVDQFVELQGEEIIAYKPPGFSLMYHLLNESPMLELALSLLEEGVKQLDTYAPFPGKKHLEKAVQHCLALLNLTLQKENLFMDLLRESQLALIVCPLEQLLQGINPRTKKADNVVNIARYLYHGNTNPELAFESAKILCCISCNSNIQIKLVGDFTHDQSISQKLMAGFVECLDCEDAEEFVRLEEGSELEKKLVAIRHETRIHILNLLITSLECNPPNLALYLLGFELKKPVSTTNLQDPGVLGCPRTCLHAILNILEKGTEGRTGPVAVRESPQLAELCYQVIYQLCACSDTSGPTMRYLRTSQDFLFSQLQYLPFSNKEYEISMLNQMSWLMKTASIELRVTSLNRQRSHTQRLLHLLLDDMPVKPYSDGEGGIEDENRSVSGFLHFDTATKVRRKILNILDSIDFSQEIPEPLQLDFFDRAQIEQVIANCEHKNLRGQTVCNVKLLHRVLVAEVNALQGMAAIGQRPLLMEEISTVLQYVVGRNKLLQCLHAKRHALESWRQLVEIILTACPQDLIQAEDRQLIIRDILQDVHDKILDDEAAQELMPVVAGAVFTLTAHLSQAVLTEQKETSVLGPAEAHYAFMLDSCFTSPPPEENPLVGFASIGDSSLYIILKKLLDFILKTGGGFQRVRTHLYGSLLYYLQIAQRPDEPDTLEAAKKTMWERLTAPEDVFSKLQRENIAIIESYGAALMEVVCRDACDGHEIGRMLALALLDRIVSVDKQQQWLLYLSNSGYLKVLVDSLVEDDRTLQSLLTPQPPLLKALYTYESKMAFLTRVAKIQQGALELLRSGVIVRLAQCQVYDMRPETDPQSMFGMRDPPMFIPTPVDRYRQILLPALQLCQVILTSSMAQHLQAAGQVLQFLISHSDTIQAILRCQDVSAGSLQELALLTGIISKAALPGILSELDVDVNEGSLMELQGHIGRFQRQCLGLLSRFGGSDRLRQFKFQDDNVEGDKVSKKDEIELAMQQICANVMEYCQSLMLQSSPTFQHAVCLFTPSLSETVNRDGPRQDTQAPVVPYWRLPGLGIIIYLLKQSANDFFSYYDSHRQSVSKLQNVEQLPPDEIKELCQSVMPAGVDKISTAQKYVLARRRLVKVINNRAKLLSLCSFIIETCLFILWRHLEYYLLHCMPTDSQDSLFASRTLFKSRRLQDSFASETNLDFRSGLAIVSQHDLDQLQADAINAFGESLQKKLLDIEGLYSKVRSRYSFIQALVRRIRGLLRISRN
# T4 sequence (Q08211 whole entry): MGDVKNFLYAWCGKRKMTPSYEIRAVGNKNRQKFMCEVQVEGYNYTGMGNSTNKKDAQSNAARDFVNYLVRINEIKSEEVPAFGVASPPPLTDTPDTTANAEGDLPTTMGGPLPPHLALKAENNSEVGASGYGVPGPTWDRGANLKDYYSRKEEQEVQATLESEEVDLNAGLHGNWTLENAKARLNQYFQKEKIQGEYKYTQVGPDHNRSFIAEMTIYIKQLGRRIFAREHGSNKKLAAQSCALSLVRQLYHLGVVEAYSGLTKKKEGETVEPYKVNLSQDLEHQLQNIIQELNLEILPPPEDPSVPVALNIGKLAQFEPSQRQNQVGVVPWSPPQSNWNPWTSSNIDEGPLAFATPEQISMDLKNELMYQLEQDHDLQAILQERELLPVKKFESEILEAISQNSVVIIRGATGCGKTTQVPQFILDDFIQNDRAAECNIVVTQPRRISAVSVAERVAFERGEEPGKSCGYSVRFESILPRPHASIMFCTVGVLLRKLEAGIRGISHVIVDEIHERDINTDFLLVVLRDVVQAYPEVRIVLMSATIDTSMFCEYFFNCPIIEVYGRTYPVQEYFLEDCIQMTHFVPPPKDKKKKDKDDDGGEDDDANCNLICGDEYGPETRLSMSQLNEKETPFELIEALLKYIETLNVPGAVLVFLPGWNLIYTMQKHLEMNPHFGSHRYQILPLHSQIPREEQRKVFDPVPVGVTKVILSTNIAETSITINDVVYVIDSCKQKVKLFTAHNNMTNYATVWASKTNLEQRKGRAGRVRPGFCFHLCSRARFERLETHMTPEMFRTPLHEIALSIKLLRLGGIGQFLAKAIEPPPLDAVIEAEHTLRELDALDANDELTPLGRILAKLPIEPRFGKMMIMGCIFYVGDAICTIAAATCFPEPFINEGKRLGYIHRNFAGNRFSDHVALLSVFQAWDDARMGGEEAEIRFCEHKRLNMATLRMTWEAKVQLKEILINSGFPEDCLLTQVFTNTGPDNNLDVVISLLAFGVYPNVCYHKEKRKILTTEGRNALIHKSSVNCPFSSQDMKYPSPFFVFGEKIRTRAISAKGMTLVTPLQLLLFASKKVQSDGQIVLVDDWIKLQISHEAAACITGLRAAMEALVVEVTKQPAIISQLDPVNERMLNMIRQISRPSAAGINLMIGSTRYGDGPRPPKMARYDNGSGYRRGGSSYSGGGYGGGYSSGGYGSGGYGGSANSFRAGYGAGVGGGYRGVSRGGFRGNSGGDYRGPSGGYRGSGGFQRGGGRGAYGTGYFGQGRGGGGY
# T3 sequence (Q9Y4B6 whole entry): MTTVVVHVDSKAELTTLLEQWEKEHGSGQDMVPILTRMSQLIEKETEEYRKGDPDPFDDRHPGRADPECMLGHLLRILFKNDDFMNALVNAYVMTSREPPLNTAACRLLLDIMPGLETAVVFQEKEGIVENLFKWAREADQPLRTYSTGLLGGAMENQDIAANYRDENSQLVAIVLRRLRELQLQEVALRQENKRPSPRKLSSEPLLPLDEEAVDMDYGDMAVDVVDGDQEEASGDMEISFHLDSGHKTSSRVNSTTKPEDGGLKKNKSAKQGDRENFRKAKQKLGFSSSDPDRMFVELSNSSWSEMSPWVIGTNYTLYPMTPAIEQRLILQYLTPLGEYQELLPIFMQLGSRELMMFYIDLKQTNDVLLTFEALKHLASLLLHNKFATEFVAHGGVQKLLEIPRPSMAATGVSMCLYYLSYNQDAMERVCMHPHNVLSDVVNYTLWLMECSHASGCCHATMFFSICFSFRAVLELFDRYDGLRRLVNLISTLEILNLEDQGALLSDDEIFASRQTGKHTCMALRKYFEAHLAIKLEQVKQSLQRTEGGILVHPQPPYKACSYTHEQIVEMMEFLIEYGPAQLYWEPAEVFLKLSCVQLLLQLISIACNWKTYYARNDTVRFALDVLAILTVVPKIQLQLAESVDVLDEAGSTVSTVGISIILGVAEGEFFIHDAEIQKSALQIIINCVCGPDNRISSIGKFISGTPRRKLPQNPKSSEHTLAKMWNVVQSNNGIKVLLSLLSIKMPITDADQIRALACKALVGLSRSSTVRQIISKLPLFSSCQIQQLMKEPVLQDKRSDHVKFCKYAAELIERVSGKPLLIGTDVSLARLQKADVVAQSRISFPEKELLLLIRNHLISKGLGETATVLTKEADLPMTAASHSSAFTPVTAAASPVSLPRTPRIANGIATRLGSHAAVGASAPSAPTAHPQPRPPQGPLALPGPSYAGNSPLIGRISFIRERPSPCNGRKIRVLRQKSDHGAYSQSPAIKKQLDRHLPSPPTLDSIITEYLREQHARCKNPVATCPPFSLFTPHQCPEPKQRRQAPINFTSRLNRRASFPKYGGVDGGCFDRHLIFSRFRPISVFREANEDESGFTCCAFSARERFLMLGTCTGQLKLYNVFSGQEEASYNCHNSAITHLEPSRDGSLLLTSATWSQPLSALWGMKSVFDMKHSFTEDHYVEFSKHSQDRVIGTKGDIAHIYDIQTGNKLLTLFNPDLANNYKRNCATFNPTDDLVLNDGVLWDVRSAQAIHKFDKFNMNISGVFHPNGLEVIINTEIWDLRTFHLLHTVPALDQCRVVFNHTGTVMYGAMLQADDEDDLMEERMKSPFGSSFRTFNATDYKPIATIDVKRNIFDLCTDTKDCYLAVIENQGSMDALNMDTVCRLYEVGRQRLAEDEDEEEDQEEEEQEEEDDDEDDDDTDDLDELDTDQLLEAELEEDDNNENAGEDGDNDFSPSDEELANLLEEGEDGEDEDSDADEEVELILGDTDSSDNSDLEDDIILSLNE
SMILES,% engagement ABHD16A_205 [1] [%],% engagement ABHD16A_C205 [1] [%],% engagement CNOT4_C175 [2] [%],% engagement DCAF1_C1113 [3] [%],% engagement DHX9_C608 [4] [%],% engagement ITPR2_C579 [5] [%],% engagement NUP205_C224 [6] [%]
"CC#CC(=O)N1C[C@H](c2ccc(Br)cc2)[C@@H]1C(=O)Nc1cccc2cccnc12 [MY-45B, (2R,3S)-3-(4-bromophenyl)-1-(but-2-ynoyl)-N-(quinolin-8-yl)azetidine-2-carboxamide]",62.50,,,,,,
"C=CC(=O)N1C[C@H](c2ccc(Br)cc2)[C@H]1C(=O)Nc1cccc2cccnc12 [MY-3A, (2S,3S)-1-acryloyl-3-(4-bromophenyl)-N-(quinolin-8-yl)azetidine-2-carboxamide]",,73.25,76.5,−1.5,16,4.5,100
"C=CC(=O)N1C[C@H](c2ccc(Br)cc2)[C@@H]1C(=O)Nc1cccc2cccnc12 [MY-1B, (2R,3S)-1-acryloyl-3-(4-bromophenyl)-N-(quinolin-8-yl)azetidine-2-carboxamide]",83.67,80.25,−15,68.5,−11,11.25,6
"C=CC(=O)N1C[C@H](c2ccc(Br)cc2)[C@H]1C(=O)Nc1cccc2cccnc12 [MY-3B, (2S,3S)-1-acryloyl-3-(4-bromophenyl)-N-(quinolin-8-yl)azetidine-2-carboxamide]",,77.25,76,26.5,69.5,70.75,30.5
"C=CC(=O)N1C[C@@H](c2ccc(Br)cc2)[C@H]1C(=O)Nc1cccc2cccnc12 [MY-1A, (2S,3R)-1-acryloyl-3-(4-bromophenyl)-N-(quinolin-8-yl)azetidine-2-carboxamide]",,67.75,0,−18,−10.5,7.75,28.5
